Experimental data from patent US20050154010A1 (The Regents of University of California, priority 2002, published 2005).
Structures can show the parent of a compound that is named as a salt.

How the values were obtained:
[1] = cited from earlier work
[2] = in vivo; cited from earlier work
[3] = test system: Chronic lymphocytic leukemia cells (CLL); assay: Viable CLL cells after 48 hours exposure, dye exclusion and flow cytometric analysis; format: cell-based, human
Procedure: (§1) After 48 hours exposure, the number of viable cells was determined by dye exclusion and flow cytometric analysis.

NCI-H460 = assay: NCI In Vitro Cell Line Screening; format: cell-based; details: Homo sapiens; NCI-H460, Non-Small Cell Lung Cancer
Procedure: (§2) The human tumor cell lines of the cancer screening panel are grown in RPMI 1640 medium containing 5% fetal bovine serum and 2 mM L-glutamine. For a typical screening experiment, cells are inoculated into 96 well microtiter plates in 100 μL at plating densities ranging from 5,000 to 40,000 cells/well depending on the doubling time of individual cell lines. After cell inoculation, the microtiter plates are incubated at 37° C., 5% CO2, 95% air and 100% relative humidity for 24 h prior to addition of experimental drugs. After 24 h, two plates of each cell line are fixed iin situ with TCA, to represent a measurement of the cell population for each cell line at the time of drug addition (Tz).
(§3) Experimental drugs are solubilized in dimethyl sulfoxide at 400-fold the desired final maximum test concentration and stored frozen prior to use. At the time of drug addition, an aliquot of frozen concentrate is thawed and diluted to twice the desired final maximum test concentration with complete medium containing 50 μg/ml gentamicin. Additional four, 10-fold or ½ log serial dilutions are made to provide a total of five drug concentrations plus control. Aliquots of 100 μl of these different drug dilutions are added to the appropriate microtiter wells already containing 100 μl of medium, resulting in the required final drug concentrations. Following drug addition, the plates are incubated for an additional 48 h at 37° C., 5% CO2, 95% air, and 100% relative humidity. For adherent cells, the assay is terminated by the addition of cold TCA.
(§4) Cells are fixed in situ by the gentle addition of 50 μl of cold 50% (w/v) TCA (final concentration, 10% TCA) and incubated for 60 minutes at 4° C. The supernatant is discarded, and the plates are washed five times with tap water and air-dried. Sulforhodamine B (SRB) solution (100 μl) at 0.4% (w/v) in 1% acetic acid is added to each well, and plates are incubated for 10 minutes at room temperature. After staining, unbound dye is removed by washing five times with 1% acetic acid and the plates are air dried. Bound stainis subsequently solubilized with 10 mM trizma base, and the absorbance is read on an automated plate reader at a wavelength of 515 nm. For suspension cells, the methodology is the same except that the assay is terminated by fixing settled cells at the bottom of the wells by gently adding 50 μl of 80% TCA (final concentration, 16% TCA). Using the seven absorbance measurements [time zero, (Tz), control growth, (C), and test growth in the presence of drug at the five concentration levels ( ? )], tile percentage growth is calculated at each of the drug concentrations levels. Percentage growth inhibition is calculated as: [(Ti−Tz)/(C−Tz)]×100 for concentrations for which Ti>/=Tz [(Ti−Tz)/Tz]×100 for concentrations for which Ti<Tz
(§5) Three dose-response parameters are calculated for each experimental agent. Growth inhibition of 50% (GI50) is calculated from [(Ti−Tz)/(C−Tz)]×100=50, which is the drug concentration resulting in a 50% reduction in the net protein increase (as measured by SRB staining) in control cells during the drug incubation. The drug concentration resulting in total growth inhibition (TGI) is calculated from Ti=Tz. The LC50 (concentration of drug resulting in a 50% reduction in the measured protein at the end of the drug treatment as compared to that at the beginning) indicating a net loss of cells following treatment is calculated from [(Ti−Tz)/Tz]×100=−50. Values are calculated for each of these three parameters if the level of activity is reached; however, if the effect is not reached or is exceeded, the value for that parameter is expressed as greater or less than the maximum or minimum concentration tested.

CAK-1 = assay: NCI In Vitro Cell Line Screening; format: cell-based; details: Homo sapiens; CAK-1, Renal Cell Carcinoma
Procedure: as §2, §3, §4, §5

HCC-2998 = assay: NCI In Vitro Cell Line Screening; format: cell-based; details: Homo sapiens; HCC-2998, Colon Cancer
Procedure: as §2, §3, §4, §5

NCI-H23 = assay: NCI In Vitro Cell Line Screening; format: cell-based; details: Homo sapiens; NCI-H23, Non-Small Cell Lung Cancer
Procedure: as §2, §3, §4, §5

SK-MEL-5 = assay: NCI In Vitro Cell Line Screening; format: cell-based; details: Homo sapiens; SK-MEL-5, Melanoma
Procedure: as §2, §3, §4, §5

RXF 393 = assay: NCI In Vitro Cell Line Screening; format: cell-based; details: Homo sapiens; RXF 393, Renal Cell Carcinoma
Procedure: as §2, §3, §4, §5

LOX IMVI = assay: NCI In Vitro Cell Line Screening; format: cell-based; details: Homo sapiens, Melanoma
Procedure: as §2, §3, §4, §5

OVCAR-4 = assay: NCI In Vitro Cell Line Screening; format: cell-based; details: Homo sapiens; OVCAR-4, Ovarian Carcinoma
Procedure: as §2, §3, §4, §5

[4] = test system: 60 human tumor cell lines; assay: cells; format: cell-based
From the text: The operation of this screen utilizes 60 different human tumor cell lines, representing leukemia, melanoma, and cancers of the lung, colon, brain, ovary, breast, prostate, and kidney. The aim is to prioritize for further evaluation, synthetic compounds or natural product samples showing selective growth inhibition or cell killing of particular tumor cell lines. This screen is unique in that the complexity of a 60-cell line dose response produced by a given compound results in a biological response pattern which can be utilized in pattern recognition algorithms. Using these algorithms, it is possible to assign a putative mechanism of action to a test compound, or to determine that the response pattern is unique and not similar to that of any of the standard prototype compounds included in the NCI database (see DTP Overview tab). In addition, following characterization of various cellular molecular targets in the 60 cell lines, it may be possible to select compounds most likely to interact with a specific molecular target.
as §2
Experimental drugs are solubilized in dimethyl sulfoxide at 400-fold the desired final maximum test concentration and stored frozen prior to use. […]
Cells are fixed in situ by the gentle addition of 50 μl of cold 50% (w/v) TCA (final concentration, 10% TCA) and incubated for 60 minutes at 4° C. […] Bound stainis subsequently solubilized with 10 mM trizma base, and the absorbance is read on an automated plate reader at a wavelength of 515 nm. […] Using the seven absorbance measurements [time zero, (Tz), control growth, (C), and test growth in the presence of drug at the five concentration levels ( ? )], tile percentage growth is calculated at each of the drug concentrations levels. Percentage growth inhibition is calculated as: [(Ti−Tz)/(C−Tz)]×100 for concentrations for which Ti>/=Tz [(Ti−Tz)/Tz]×100 for concentrations for which Ti<Tz
Three dose-response parameters are calculated for each experimental agent. […]

[5] = test system: control normal lymphocytes (PBL); assay: Viable normal lymphocytes after 48 hours exposure, dye exclusion and flow cytometric analysis; format: cell-based, human; details: 10 μM
Procedure: as §1

SU-DHL9 = assay: MTT assay, cell viability; format: cell-based; details: SU-DHL9, Lymphoma, 72 hours exposure
Procedure: (§6) After 72 hours exposure, the viability of the cells was determined by the rate of conversion of the formazan salt measuring the optical density (OD) at 570 nm (MTT assay).

MCF7 = assay: MTT assay, cell viability; format: cell-based; details: MCF7, Breast, 72 hours exposure
Procedure: as §6

MDA-231 = assay: MTT assay, cell viability; format: cell-based; details: MDA-231, Breast, 72 hours exposure
Procedure: as §6

RPMI8226 = assay: MTT assay, cell viability; format: cell-based; details: RPMI8226, Myeloma, 72 hours exposure
Procedure: as §6

HCT-116 = assay: MTT assay, cell viability; format: cell-based; details: HCT-116, Colon, 72 hours exposure
Procedure: as §6

U266 = assay: MTT assay, cell viability; format: cell-based; details: U266, Myeloma, 72 hours exposure
Procedure: as §6

SU-DHL1 = assay: MTT assay, cell viability; format: cell-based; details: SU-DHL1, Lymphoma, 72 hours exposure
Procedure: as §6

LNCap = assay: MTT assay, cell viability; format: cell-based; details: Prostate, 72 hours exposure
Procedure: as §6

RAJI = assay: MTT assay, cell viability; format: cell-based; details: Lymphoma, 72 hours exposure
Procedure: as §6

10C9 = assay: MTT assay, cell viability; format: cell-based; details: 10C9, Lymphoma, 72 hours exposure
Procedure: as §6

[6] = in vivo; cited from earlier work; remark: listed apart in the source
[7] = test system: Chronic lymphocytic leukemia cells (CLL); assay: Flow cytometry (propidium iodide, DiOC6) of CLL cells after 24 hours exposure; format: cell-based, human; details: 10 μM, FIG. 2
Procedure: After 24 hours exposure, the percentage of living (lower-right corner), apoptotic (lower-left corner) and dead (higher-left corner) were analyzed by flow cytometry using propidium iodide (y axis) and DiOC6 (x axis). The results, showing the activity of the (+) and (−) enantiomers against CLL cells, are seen in FIG. 2.

[8] = cited from earlier work; remark: listed apart in the source
[9] = test system: peripheral blood T lymphocytes; details: Meng et al. 1997; cited from earlier work
CLL cells = details: Lagneaux et al. 2001; not feasible in vivo due to toxicity; cited from earlier work

Compound: 2,8-bis-trifluorornethyl-4-quinoline carboxylic acid [Metabolite]
- level accumulated in the plasma ([1]; plasma): up to 10 μM
- Mean (SD) trough concentration, Plasma ([1]; plasma, ten healthy volunteers, 250 mg once weekly for 16 weeks, steady state at week 16): 9.80 (5.07) μmol · 1^−1
- Mean (SD) trough concentration, Serum ([1]; serum, ten healthy volunteers, 250 mg once weekly for 16 weeks, steady state at week 16): 9.44 (5.00) μmol · 1^−1
- Mean (SD) trough concentration, Whole Blood ([1]; whole blood, ten healthy volunteers, 250 mg once weekly for 16 weeks, steady state at week 16): 4.89 (2.58) μmol · 1^−1

Compound: O[C@H](c1cc(C(F)(F)F)nc2c(C(F)(F)F)cccc12)[C@@H]1CCCCN1 (racemic) [Mefloquine, (R*,S*)-(±)-alpha-2-piperidinyl-2,8-bis(trifluoromethyl)-4-quinolinemethanol]
- bioavailability [2]: 80%
- concentration effective against CLL cells [3]: ≤ 10 µM
- GI50 (NCI-H460): 2.1 µM
- GI50 (CAK-1): 0.1 µM
- GI50 (HCC-2998): 2 µM
- GI50 (NCI-H23): 2.8 µM
- GI50 (SK-MEL-5): 2 µM
- GI50 (RXF 393): 1.7 µM
- GI50 (LOX IMVI): 1.3 µM
- GI50 (OVCAR-4): 1.9 µM
- CC50 ([4]; Homo sapiens, 48 h, read-out: Mean LC50): 87 µM
- GI50 ([4]; Homo sapiens, mean over 60 tumor cell lines, 48 h, SRB): 4 µM
- Mean TGI50 ([4]; mean over 60 tumor cell lines, 48 h, SRB): 26 µM
- number of the 60 cell lines against which active ([4]; of the 60 cell lines in the screen): 58

Compound: O[C@H](c1cc(C(F)(F)F)nc2c(C(F)(F)F)cccc12)[C@@H]1CCCCN1 (relative stereo) [Mefloquine, (R*,S*)-(±)-alpha-2-piperidinyl-2,8-bis(trifluoromethyl)-4-quinolinemethanol]
- apoptosis induction in normal lymphocytes [5]: not against normal lymphocytes
- apoptosis induction in CLL cells ([3]; 10 μM, 48 hours exposure): inducing potent apoptosis

Compound: OC(c1cc(C(F)(F)F)nc2c(C(F)(F)F)cccc12)C1CCCCN1 (single isomer, unassigned; (-)) [(−)Mefloquine]
- IC50 (SU-DHL9): 15 µM
- IC50 (MCF7): 20 µM
- IC50 (MDA-231): 40 µM
- IC50 (RPMI8226): 15 µM
- IC50 (HCT-116): 12 µM
- IC50 (U266): 25 µM
- IC50 (SU-DHL1): 20 µM
- IC50 (LNCap): 25 µM
- IC50 (RAJI): 30 µM
- IC50 (10C9): 20 µM
- passage of the blood brain barrier / accumulation in the brain [6]: does not seem to pass the blood brain barrier
- activity against CLL cells [7]: activity

Compound: O[C@H](c1cc(C(F)(F)F)nc2c(C(F)(F)F)cccc12)[C@@H]1CCCCN1 [(+)-mefloquine]
- passage of the blood brain barrier / accumulation in the brain [6]: accumulate in the brain
- activity against CLL cells [7]: activity

Compound: OC(c1cc(C(F)(F)F)nc2c(C(F)(F)F)cccc12)C1CCCCN1 (centres unmarked) [Mefloquine hydrochloride]
- solubility in ethanol ([8]; ethanol): soluble
- solubility in water ([8]; water): slightly soluble

Compound: CCN(CCO)CCCC(C)Nc1ccnc2cc(Cl)ccc12 (centres unmarked) [hydroxychloroquine]
- apoptosis induction in peripheral blood T lymphocytes [9]: induce apoptosis
- concentration active against CLL cells (CLL cells): ≥ 30 µg/mL
